According to DBAASP:
Converted amounts (≈) assume the structure as drawn. “And” between values parts separate entries of the source, which are not always exact repeats. Identical values can stand only once. Values belong to the compound of their own block, whether it stands above or below them.

Legend:
Assay in all cases: ≥ marks a high value that may be exact or a test limit, other limits are often not marked, values filed in µg/mL are converted to µM
[1] = tested on: Acinetobacter baumannii 97830
[2] = tested on: Acinetobacter baumannii 9931
[3] = tested on: Acinetobacter baumannii ATCC 19606
[4] = tested on: Bacillus subtilis ATCC 23857
Escherichia coli 780 = tested on: Escherichia coli 780
Escherichia coli 804 = tested on: Escherichia coli 804
[5] = tested on: Escherichia coli ATCC 25922
[6] = tested on: Klebsiella pneumoniae ATCC 700603
[7] = tested on: Pseudomonas aeruginosa 50
[8] = tested on: Pseudomonas aeruginosa 73
[9] = tested on: Pseudomonas aeruginosa ATCC 27853
[10] = tested on: Pseudomonas aeruginosa ATCC 9027
[11] = tested on: Staphylococcus aureus 113
Staphylococcus aureus 75 = tested on: Staphylococcus aureus 75
[12] = tested on: Staphylococcus aureus ATCC 25923
[13] = tested on: Staphylococcus aureus ATCC 29213
[14] = tested on: Staphylococcus epidermidis ATCC 12228
Bacillus cereus = tested on: Bacillus cereus
[15] = tested on: Bacillus subtilis ATCC 6633
[16] = tested on: Candida albicans ATCC 36232
[17] = tested on: Escherichia coli KCTC 2433
Escherichia coli = tested on: Escherichia coli
[18] = tested on: Klebsiella pneumoniae ATCC 10031
Lactococcus lactis = tested on: Lactococcus lactis
[19] = tested on: Micrococcus luteus ATCC 4698
[20] = tested on: Proteus mirabilis ATCC 25933
[21] = tested on: Shigella dysenteriae ATCC 9752
[22] = tested on: Staphylococcus aureus KCTC 3881
Staphylococcus aureus = tested on: Staphylococcus aureus
[23] = tested on: Candida albicans ATCC 64549

MIC [1]: ≥ 128 µM
MIC [2]: ≥ 128 µM
MIC [3]: > 128 µM
MIC [4]: 16 µM (≈ 16.5 µg/mL)
MIC (Escherichia coli 780): ≥ 128 µM
MIC (Escherichia coli 804): ≥ 128 µM
MIC [5]: > 128 µM
MIC [6]: > 128 µM
MIC [7]: ≥ 128 µM
MIC [8]: ≥ 128 µM
MIC [9]: > 128 µM
MIC [10]: > 128 µM
MIC [11]: ≥ 64 µM
MIC (Staphylococcus aureus 75): ≥ 64 µM
MIC [12]: 64 µM and 128 µM
MIC [13]: 128 µM (≈ 132 µg/mL)
MIC [14]: 32 µM (≈ 33 µg/mL)
Compound: C[C@H](N)C(=O)N[C@@H](CCCN=C(N)N)C(=O)N[C@@H](Cc1c[nH]c2ccccc12)C(=O)N[C@@H](Cc1c[nH]c2ccccc12)C(=O)N[C@@H](Cc1c[nH]c2ccccc12)C(=O)N[C@@H](CCCN=C(N)N)C(=O)N[C@@H](C)C(N)=O [ARWWWRA]

MIC (Bacillus cereus): 25.6 µM (≈ 48.9 µg/mL)
MIC [15]: 13.1 µM (≈ 25 µg/mL)
MIC [16]: ≥ 52.3 µM
MIC [17]: 31.4 µM (≈ 59.9 µg/mL)
MIC (Escherichia coli): 25.6 µM (≈ 48.9 µg/mL)
MIC [18]: 31.4 µM (≈ 59.9 µg/mL)
MIC (Lactococcus lactis): 25.6 µM (≈ 48.9 µg/mL)
MIC [19]: 3.27 µM (≈ 6.24 µg/mL)
MIC [20]: ≥ 52.3 µM
MIC [10]: > 52.3 µM
MIC [21]: 26.2 µM (≈ 49.9 µg/mL)
MIC [22]: 7.85 µM (≈ 15 µg/mL)
MIC (Staphylococcus aureus): 12.8 µM (≈ 24.4 µg/mL)
MIC [14]: 13.1 µM (≈ 25 µg/mL)
Compound: CC[C@H](C)[C@H](NC(=O)[C@H](CC(C)C)NC(=O)[C@@H](N)Cc1ccccc1)C(=O)NCC(=O)N[C@@H](CCSC)C(=O)N[C@H](C(=O)N[C@@H](CCC(N)=O)C(=O)NCC(=O)N[C@@H](CC(C)C)C(=O)N[C@H](C(=O)N[C@H]1CSSC[C@@H](C(=O)O)NC(=O)[C@H](CCCCN)NC(=O)[C@H](CCCN=C(N)N)NC(=O)[C@H]([C@@H](C)O)NC(=O)[C@H]([C@@H](C)CC)NC(=O)[C@H](CC(C)C)NC1=O)[C@@H](C)CC)[C@@H](C)O [FLIGMTQGLICLITRKC]

MIC [23]: 7.57 µM (≈ 12.5 µg/mL)
Compound: CSCC[C@H](NC(=O)[C@H](CC(N)=O)NC(=O)[C@H](CCCN=C(N)N)NC(=O)[C@H](CCC(N)=O)NC(=O)[C@H](Cc1c[nH]c2ccccc12)NC(=O)[C@H](CCC(N)=O)NC(=O)[C@H](Cc1ccccc1)NC(=O)[C@@H](N)CS)C(=O)N[C@@H](CCCN=C(N)N)C(=O)N[C@@H](CCCCN)C(=O)N[C@H](C(=O)N[C@@H](CCCN=C(N)N)C(=O)O)C(C)C [CFQWQRNMRKVR]
